According to patent US8809335B2, “Pyrazolopyrimidine kinase inhibitors” (Vertex Pharmaceuticals Incorporated, priority 2010, dated 2014):

Legend:
Type in all cases: biochemical
PKC theta kinase = PKC theta kinase (Homo sapiens, UniProt Q04759); test: PKC theta coupled-enzyme kinase assay (NADH consumption); details: 240 μM ATP, 18 nM PKC theta, 30° C.
Procedure: An assay buffer solution was prepared which consisted of 100 mM HEPES (pH 7.5), 10 mM MgCl2, 25 mM NaCl, 0.1 mM EDTA and 0.01% Brij. An enzyme buffer containing reagents to final assay concentrations of 0.00001% Triton X-100, 200 μg/mL Phosphatidylserine, 20 μg/mL Diacylglycerol, 360 μM NADH, 3 mM phosphoenolpyruvate, 70 μg/mL pyruvate kinase, 24 μg/mL lactate dehydrogenase, 2 mM DTT, 100 μM substrate peptide (ERMRPRKRQGSVRRRV SEQ ID NO. 1) and 18 nM PKC theta kinase was prepared in assay buffer. To 60 μL of this enzyme buffer, in a 384 well plate, was added 2 μL of VRT stock solution in DMSO. The mixture was allowed to equilibrate for 10 mins at 30° C. The enzyme reaction was initiated by the addition of 5 μL stock ATP solution prepared in assay buffer to a final assay concentration of 240 μM. Initial rate data was determined from the rate of change of absorbance at 340 nm (corresponding to stoichiometric consumption of NADH) using a Molecular Devices Spectramax plate reader (Sunnyvale, Calif.) over 15 mins at 30° C. For each Ki determination 12 data points covering the VRT concentration range of 0-20 μM were obtained in duplicate (DMSO stocks were prepared from an initial 10 mM VRT stock with subsequent 1:2 serial dilutions). Ki values were calculated from initial rate data by non-linear regression using the Prism software package (Prism 4.0a, Graphpad Software, San Diego, Calif.).

PKC delta kinase = PKC delta kinase (Homo sapiens, UniProt Q05655); test: PKC delta coupled-enzyme kinase assay (NADH consumption); details: 150 μM ATP, 46 nM PKC delta, 30° C.
Procedure: An assay buffer solution was prepared which consisted of 100 mM HEPES (pH 7.5), 10 mM MgCl2, 25 mM NaCl, 0.1 mM EDTA and 0.01% Brij. An enzyme buffer containing reagents to final assay concentrations of 0.002% Triton X-100, 200 μg/mL Phosphatidylserine, 20 μg/mL Diacylglycerol, 360 μM NADH, 3 mM phosphoenolpyruvate, 70 μg/mL pyruvate kinase, 24 μg/mL lactate dehydrogenase, 2 mM DTT, 150 μM substrate peptide (ERMRPRKRQGSVRRRV SEQ ID NO. 2) and 46 nM PKC delta kinase was prepared in assay buffer. To 16 μL of this enzyme buffer, in a 384 well plate, was added 1 μL of VRT stock solution in DMSO. The mixture was allowed to equilibrate for 10 mins at 30° C. The enzyme reaction was initiated by the addition of 16 μL stock ATP solution prepared in assay buffer to a final assay concentration of 150 μM. Initial rate data was determined from the rate of change of absorbance at 340 nm (corresponding to stoichiometric consumption of NADH) using a Molecular Devices Spectramax plate reader (Sunnyvale, Calif.) over 15 mins at 30° C. For each Ki determination 12 data points covering the VRT concentration range of 0-20 μM were obtained in duplicate (DMSO stocks were prepared from an initial 10 mM VRT stock with subsequent 1:2 serial dilutions). Ki values were calculated from initial rate data by non-linear regression using the Prism software package (Prism 4.0a, Graphpad Software, San Diego, Calif.).

PKC alpha kinase = PKC alpha kinase (Homo sapiens, UniProt P17252); test: PKC alpha coupled-enzyme kinase assay (NADH consumption); details: 130 μM ATP, 4.5 nM PKC alpha, 30° C.
Procedure: An assay buffer solution was prepared which consisted of 100 mM HEPES (pH 7.5), 10 mM MgCl2, 25 mM NaCl, 0.1 mM EDTA, 100 μM CaCl2 and 0.01% Brij. An enzyme buffer containing reagents to final assay concentrations of 0.002% Triton X-100, 100 μg/mL Phosphatidylserine, 20 μg/mL Diacylglycerol, 360 μM NADH, 3 mM phosphoenolpyruvate, 70 μg/mL pyruvate kinase, 24 μg/mL lactate dehydrogenase, 2 mM DTT, 150 μM substrate peptide (RRRRRKGSFKRKA SEQ ID NO. 1) and 4.5 nM PKC alpha kinase was prepared in assay buffer. To 16 μL of this enzyme buffer, in a 384 well plate, was added 1 μL of VRT stock solution in DMSO. The mixture was allowed to equilibrate for 10 mins at 30° C. The enzyme reaction was initiated by the addition of 16 μL stock ATP solution prepared in assay buffer to a final assay concentration of 130 μM. Initial rate data was determined from the rate of change of absorbance at 340 nm (corresponding to stoichiometric consumption of NADH) using a Molecular Devices Spectramax plate reader (Sunnyvale, Calif.) over 15 mins at 30° C. […] Ki values were calculated from initial rate data by non-linear regression using the Prism software package (Prism 4.0a, Graphpad Software, San Diego, Calif.).

PKC delta kinase, sequence (Q05655 whole entry): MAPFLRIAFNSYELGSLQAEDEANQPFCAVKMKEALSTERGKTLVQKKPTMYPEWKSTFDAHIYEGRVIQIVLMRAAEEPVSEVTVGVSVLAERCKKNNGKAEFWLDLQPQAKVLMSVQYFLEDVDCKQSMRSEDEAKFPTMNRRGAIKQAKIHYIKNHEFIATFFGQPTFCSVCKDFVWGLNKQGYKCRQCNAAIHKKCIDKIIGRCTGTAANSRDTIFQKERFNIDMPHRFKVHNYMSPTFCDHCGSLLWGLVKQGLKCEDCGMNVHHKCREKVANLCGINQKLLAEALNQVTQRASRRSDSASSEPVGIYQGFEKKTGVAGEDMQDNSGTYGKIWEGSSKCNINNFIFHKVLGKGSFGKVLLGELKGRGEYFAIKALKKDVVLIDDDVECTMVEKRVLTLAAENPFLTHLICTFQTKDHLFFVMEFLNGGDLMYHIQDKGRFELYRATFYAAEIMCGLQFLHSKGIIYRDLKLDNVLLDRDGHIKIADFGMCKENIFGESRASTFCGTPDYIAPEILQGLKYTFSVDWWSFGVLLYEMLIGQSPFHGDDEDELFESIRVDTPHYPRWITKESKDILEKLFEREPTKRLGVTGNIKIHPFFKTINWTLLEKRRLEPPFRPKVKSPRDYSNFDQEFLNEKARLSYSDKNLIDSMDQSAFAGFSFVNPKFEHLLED
PKC theta kinase, sequence (Q04759 whole entry): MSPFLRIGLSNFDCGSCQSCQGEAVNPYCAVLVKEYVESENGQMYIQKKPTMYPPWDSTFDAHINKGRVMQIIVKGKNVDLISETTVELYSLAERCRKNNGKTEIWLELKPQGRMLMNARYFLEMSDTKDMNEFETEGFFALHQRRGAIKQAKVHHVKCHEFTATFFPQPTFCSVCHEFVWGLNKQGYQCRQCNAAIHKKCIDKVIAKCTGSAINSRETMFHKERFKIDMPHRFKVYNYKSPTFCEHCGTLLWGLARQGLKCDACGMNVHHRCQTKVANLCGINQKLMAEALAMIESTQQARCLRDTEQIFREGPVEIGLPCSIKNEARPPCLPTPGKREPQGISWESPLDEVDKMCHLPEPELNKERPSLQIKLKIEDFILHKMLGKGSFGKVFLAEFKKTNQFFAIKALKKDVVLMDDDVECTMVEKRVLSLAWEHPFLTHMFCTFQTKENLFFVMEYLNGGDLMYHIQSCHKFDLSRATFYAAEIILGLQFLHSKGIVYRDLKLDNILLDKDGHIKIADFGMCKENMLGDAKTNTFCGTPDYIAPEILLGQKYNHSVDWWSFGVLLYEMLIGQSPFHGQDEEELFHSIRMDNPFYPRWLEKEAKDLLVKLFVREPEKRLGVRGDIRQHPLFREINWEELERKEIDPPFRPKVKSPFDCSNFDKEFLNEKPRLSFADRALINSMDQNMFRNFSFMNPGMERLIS

Ki (PKC theta kinase) [nM] | Ki (PKC delta kinase) [nM] | Ki (PKC alpha kinase) [nM] | Compound
< 1 | < 500 | < 2800 | CC(C)[C@@](C)(O)[C@@H]1CN(c2nc(-c3n[nH]c4ncncc34)c(F)cc2F)CCN1 [Compound 2, (R)-2-((S)-4-(3,5-difluoro-6-(1H-pyrazolo[3,4-d]pyrimidin-3-yl)pyridin-2-yl)piperazin-2-yl)-3-methylbutan-2-ol]
< 2800 | > 1250 | > 1250 | CCOc1ncnc2[nH]nc(-c3cccc(N4CCNC(CC(C)C)C4)n3)c12 (stereo not drawn) [Compound 1, 4-ethoxy-3-(6-(3-isobutylpiperazin-1-yl)pyridin-2-yl)-1H-pyrazolo[3,4-d]pyrimidine]
